# Assays:
# [1] = system: rat oligodendrocyte progenitor CG4 line; assay: Differentiation assay on rat oligodendrocyte progenitor CG4 line (HCS, mCherry+); format: cell-based; details: secondary screen of 49 selected compounds, 1 μM, 5 days
# Summary of the method: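 Double-reporter CG4 cells (mCherry in mature oligodendrocytes, EGFP in all lineage stages) proliferated 24 h, then given compounds at 1 μM for 5 days of differentiation, ⅔ medium changed at day 3. 9cis-RA as positive control, basal medium and 0.1% DMSO as negative; triplicates imaged by HCS, 35 fields/well.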
# [2] = system: human iPS-derived neuroprecursors; assay: Differentiation of human iPS-derived neuroprecursors into MBP+ oligodendrocytes; format: cell-based; details: 1 μM in minimal medium, p<0.05
# Summary of the method: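 Human iPS-derived NPCs with doxycycline-inducible SOX10/OLIG2/NKX6.2 were differentiated, replated on day 7, then treated in minimal medium with compound at 1 μM (DMSO vehicle negative control, 60 ng/mL T3 positive control) until fixation on day 21. MBP+ cells were counted manually by immunocytochemistry against DAPI-counted nuclei.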
SMILES,CG4 differentiation compared with 9cis-RA positive control [1],differentiation into MBP+ oligodendrocytes [2],differentiation into MBP+ oligodendrocytes ([2]; Hydrochloride)
O=C(c1ccc(CN2CCOCC2)cc1)N1CCN(C2CC2)CC1 [Bavisant],promoting differentiation significantly higher than 9cis-RA positive control,promote significantly (p<0.05) the differentiation into MBP+ oligodendrocytes,
CC(=O)N1CCN([C@H]2CCN(C(=O)N(C)[C@H](C)c3cc(C(F)(F)F)cc(C(F)(F)F)c3)[C@@H](c3ccc(F)cc3C)C2)CC1 [Casopitant],promoting differentiation significantly higher than 9cis-RA positive control,promote significantly (p<0.05) the differentiation into MBP+ oligodendrocytes,
"CCOC(=O)[C@@H](N)CCC(=O)N[C@@H](CSCc1ccccc1)C(=O)N[C@@H](C(=O)OCC)c1ccccc1.Cl [Ezatiostat hydrochloride, Ezatiostat Hydrochloride]",promoting differentiation significantly higher than 9cis-RA positive control,,promote significantly (p<0.05) the differentiation into MBP+ oligodendrocytes
C[C@H](Nc1cc(-c2cnn(C)c2)cc(Nc2cnccn2)n1)c1ccc(F)cc1 [NS-018],promoting differentiation significantly higher than 9cis-RA positive control,promote significantly (p<0.05) the differentiation into MBP+ oligodendrocytes,
NCCCC[C@H](NC(=O)[C@@H](Cc1cc(Br)c(O)c(Br)c1)NC(=O)N1CCC(N2Cc3ccccc3NC2=O)CC1)C(=O)N1CCN(c2ccncc2)CC1 [Olcegepant],promoting differentiation significantly higher than 9cis-RA positive control,promote significantly (p<0.05) the differentiation into MBP+ oligodendrocytes,
O=C(NOC[C@H](O)CO)c1ccc(F)c(F)c1Nc1ccc(I)cc1F [PD-0325901],promoting differentiation significantly higher than 9cis-RA positive control,promote significantly (p<0.05) the differentiation into MBP+ oligodendrocytes,
CC(=O)[C@H]1CC[C@H]2[C@@H]3CCC4=CC(=O)CC[C@]4(C)[C@H]3CC[C@]12C [Progesterone],promoting differentiation significantly higher than 9cis-RA positive control,promote significantly (p<0.05) the differentiation into MBP+ oligodendrocytes,
CC1(C)CCC(C)(C)c2cc(NC(=O)c3ccc(C(=O)O)cc3)ccc21 [Tamibarotene],promoting differentiation significantly higher than 9cis-RA positive control,,
